Measurements from ChEMBL document CHEMBL3045432, “Synthesis and Fungicidal Activity of -Cyanoacetamide Derivatives: Discovery of a New Rice Blast Fungicide, Diclocymet (S-2900)” (2002).
In brackets after ≈: the same amount, converted by molar mass.

Experiments:
Assay type in all cases: functional
Pyricularia grisea [1] = assay: Fungicidal activity against Magnaporthe grisea in rice plant assessed as prevention from rice blast disease measured as lesions under greenhouse at 50 ppm for 8 days by soil drench compound treated before inoculation
Pyricularia grisea [2] = assay: Fungicidal activity against Magnaporthe grisea in rice plant assessed as prevention from rice blast disease measured as lesions under greenhouse at 3.1 ppm for 8 days by foliar spray compound treated before inoculation
Pyricularia grisea [3] = assay: Fungicidal activity against Magnaporthe grisea in rice plant assessed as prevention from rice blast disease measured as lesions under greenhouse at 50 ppm for 8 days by foliar spray compound treated before inoculation
Pyricularia grisea [4] = assay: Fungicidal activity against Magnaporthe grisea in rice plant assessed as prevention from rice blast disease measured as lesions under greenhouse at 200 ppm for 8 days by soil drench compound treated before inoculation
Pyricularia grisea [5] = assay: Fungicidal activity against Magnaporthe grisea in rice plant assessed as prevention from rice blast disease measured as lesions under greenhouse at > 200 ppm for 8 days by soil drench compound treated before inoculation
Pyricularia grisea [6] = assay: Fungicidal activity against Magnaporthe grisea in rice plant assessed as prevention from rice blast disease measured as lesions under greenhouse at 200 ppm for 8 days by foliar spray compound treated before inoculation
Pyricularia grisea [7] = assay: Fungicidal activity against Magnaporthe grisea in rice plant assessed as prevention from rice blast disease measured as lesions under greenhouse at > 200 ppm for 8 days by foliar spray compound treated before inoculation
Pyricularia grisea [8] = assay: Fungicidal activity against Magnaporthe grisea in rice plant assessed as prevention from rice blast disease measured as lesions under greenhouse at 12.5 ppm for 8 days by soil drench compound treated before inoculation
Pyricularia grisea [9] = assay: Fungicidal activity against Magnaporthe grisea in rice plant assessed as rice blast disease measured as damage under greenhouse at 6.3 ppm for 8 days by foliar spray compound treated before inoculation
Pyricularia grisea [10] = assay: Fungicidal activity against Magnaporthe grisea in rice plant assessed as rice blast disease measured as damage under greenhouse at 25 ppm for 8 days by foliar spray compound treated before inoculation
Pyricularia grisea [11] = assay: Fungicidal activity against Magnaporthe grisea in rice plant assessed as rice blast disease measured as damage under greenhouse at 1.6 ppm for 8 days by foliar spray compound treated before inoculation
Pyricularia grisea [12] = assay: Fungicidal activity against Magnaporthe grisea in rice plant assessed as rice blast disease measured as damage under greenhouse at 0.4 ppm for 8 days by foliar spray compound treated before inoculation
Pyricularia grisea [13] = assay: Fungicidal activity against Magnaporthe grisea in rice plant assessed as rice blast disease measured as damage under greenhouse by foliar spray for 8 days compound treated before inoculation; details: 192 h

`Cc1ccc(C(C)NC(=O)C(C#N)C(C)(C)C)cc1` (stereo unspecified) was tested, and the Activity (Pyricularia grisea [1]) was “<=10%” and the Activity (Pyricularia grisea [2]) was “<=10%”.

In the case of `CCC(CC)=C(C#N)C(=O)NC(C)c1ccc(Cl)cc1` (stereo unspecified), the Activity (Pyricularia grisea [3]) is reported as “<=10%” and the Activity (Pyricularia grisea [4]) is reported as “<=10%”.

For `CC(NC(=O)C(C#N)C(C)(C)C)c1ccccc1` (stereo unspecified), the Activity (Pyricularia grisea [5]) was “<=10%” and the Activity (Pyricularia grisea [6]) was “<=10%”.

`CC(NC(=O)C1(C#N)CC1(C)C)c1ccc(Cl)cc1` (stereo unspecified) was tested, and the Activity (Pyricularia grisea [7]) was “<=10%” and the Activity (Pyricularia grisea [5]) was “<=10%”.

`C#CC(C)(C)C(C#N)C(=O)NC(C)c1ccc(Cl)cc1` (stereo unspecified) was tested, and the Activity (Pyricularia grisea [2]) was “<=10%” and the Activity (Pyricularia grisea [8]) was “<=10%”.

For `CC(NC(=O)C(C#N)C(C)(C)C)c1ccc(Cl)cc1` (stereo unspecified), the Activity (Pyricularia grisea [2]) was “<=10%” and the Activity (Pyricularia grisea [8]) was “<=10%”.

For `CC(C)=C(C#N)C(=O)NC(C)c1ccc(Cl)cc1` (stereo unspecified), the Activity (Pyricularia grisea [7]) was “<=10%” and the Activity (Pyricularia grisea [5]) was “<=10%”.

In the case of `CC(Cc1ccc(Cl)cc1)NC(=O)C(C#N)C(C)(C)C` (stereo unspecified), the Activity (Pyricularia grisea [5]) is reported as “<=10%” and the Activity (Pyricularia grisea [6]) is reported as “<=10%”.

With `CCC(C#N)(CC)C(=O)NC(C)c1ccc(Cl)cc1` (stereo unspecified) the Activity (Pyricularia grisea [7]) was “<=10%” and the Activity (Pyricularia grisea [5]) was “<=10%”.

With `CC(C)C(C)NC(=O)C(C#N)C(C)(C)C` (stereo unspecified) the Activity (Pyricularia grisea [7]) was “<=10%” and the Activity (Pyricularia grisea [5]) was “<=10%”.

With `CC(NC(=O)C(C#N)=C1CCCCC1)c1ccc(Cl)cc1` (stereo unspecified) the Activity (Pyricularia grisea [7]) was “<=10%” and the Activity (Pyricularia grisea [5]) was “<=10%”.

With `CC(NC(=O)C(C#N)C(C)C)c1ccc(Cl)cc1` (stereo unspecified) the Activity (Pyricularia grisea [6]) was “<=10%” and the Activity (Pyricularia grisea [1]) was “<=10%”.

For `CC(C#N)C(=O)NC(C)c1ccc(Cl)cc1` (stereo unspecified), the Activity (Pyricularia grisea [7]) was “<=10%” and the Activity (Pyricularia grisea [5]) was “<=10%”.

`O=C1OCc2c(Cl)c(Cl)c(Cl)c(Cl)c21` [4,5,6,7-TETRACHLOROPHTHALIDE] was tested, and the Activity (Pyricularia grisea [9]) was 1%, the Activity (Pyricularia grisea [10]) was 4% and the Activity (Pyricularia grisea [11]) was 0%. The Activity (Pyricularia grisea [12]) was 0%.

In the case of `CC(NC(=O)C(C#N)C1CCCCC1)c1ccc(Cl)cc1` (stereo unspecified), the Activity (Pyricularia grisea [5]) is reported as “<=10%” and the Activity (Pyricularia grisea [6]) is reported as “<=10%”.

For `C[C@@H](NC(=O)[C@@H](C#N)C(C)(C)C)c1ccc(Cl)cc1Cl`, the Activity (Pyricularia grisea [9]) was 3%, the Activity (Pyricularia grisea [10]) was 4% and the MIC (Pyricularia grisea [13]) was 0.16 µg/mL (≈ 0.511 µM). The Activity (Pyricularia grisea [11]) was 2% and the Activity (Pyricularia grisea [12]) was 0%.

`CCC(CC)C(C#N)C(=O)NC(C)c1ccc(Cl)cc1` (stereo unspecified) was tested, and the Activity (Pyricularia grisea [1]) was “<=10%” and the Activity (Pyricularia grisea [2]) was “<=10%”.

`C=CC(C)(C)C(C#N)C(=O)NC(C)c1ccc(Cl)cc1C` (stereo unspecified) was tested, and the Activity (Pyricularia grisea [5]) was “<=10%”.

`CC(C)(C)C(C#N)C(=O)NCc1ccc(Cl)cc1` (stereo unspecified) was tested, and the Activity (Pyricularia grisea [4]) was “<=10%” and the Activity (Pyricularia grisea [6]) was “<=10%”.

`CCCCC(C#N)C(=O)NC(C)c1ccc(Cl)cc1` (stereo unspecified) was tested, and the Activity (Pyricularia grisea [3]) was “<=10%” and the Activity (Pyricularia grisea [4]) was “<=10%”.

For `CC(C)CC(C#N)C(=O)NC(C)c1ccc(Cl)cc1` (stereo unspecified), the Activity (Pyricularia grisea [4]) was “<=10%” and the Activity (Pyricularia grisea [6]) was “<=10%”.

In the case of `CCC(C)C(C#N)C(=O)NC(C)c1ccc(Cl)cc1` (stereo unspecified), the Activity (Pyricularia grisea [3]) is reported as “<=10%” and the Activity (Pyricularia grisea [1]) is reported as “<=10%”.

With `CC(NC(=O)C(C(C)(C)C)S(C)(=O)=O)c1ccc(Cl)cc1` (stereo unspecified) the Activity (Pyricularia grisea [5]) was “<=10%” and the Activity (Pyricularia grisea [6]) was “<=10%”.

For `COC(NC(=O)C(C#N)C(C)(C)C)c1ccc(Cl)cc1` (stereo unspecified), the Activity (Pyricularia grisea [7]) was “<=10%” and the Activity (Pyricularia grisea [5]) was “<=10%”.

With `CC(NC(=O)C(C#N)C(C)(C)C)c1cccc(Cl)c1` (stereo unspecified) the Activity (Pyricularia grisea [4]) was “<=10%” and the Activity (Pyricularia grisea [6]) was “<=10%”.

With `CC(NC(=O)C(C#N)CC(C)(C)C)c1ccc(Cl)cc1` (stereo unspecified) the Activity (Pyricularia grisea [6]) was “<=10%” and the Activity (Pyricularia grisea [1]) was “<=10%”.

In the case of `CC(NC(=O)C(C)(C#N)C(C)C)c1ccc(Cl)cc1` (stereo unspecified), the Activity (Pyricularia grisea [7]) is reported as “<=10%” and the Activity (Pyricularia grisea [5]) is reported as “<=10%”.

With `CC(NC(=O)C(C#N)C(C)(C)C)c1ccc(C(F)(F)F)cc1` (stereo unspecified) the Activity (Pyricularia grisea [1]) was “<=10%” and the Activity (Pyricularia grisea [2]) was “<=10%”.

`CC(NC(=O)C(C#N)C(C)(C)C)c1ccc(Cl)s1` (stereo unspecified) was tested, and the Activity (Pyricularia grisea [5]) was “<=10%” and the Activity (Pyricularia grisea [6]) was “<=10%”.

In the case of `CC(NC(=O)C(C#N)=C1CCCC1)c1ccc(Cl)cc1` (stereo unspecified), the Activity (Pyricularia grisea [4]) is reported as “<=10%” and the Activity (Pyricularia grisea [6]) is reported as “<=10%”.

`CC(NC(=O)C(Br)C(C)(C)C)c1ccc(Cl)cc1` (stereo unspecified) was tested, and the Activity (Pyricularia grisea [4]) was “<=10%”.

With `CC(NC(=O)C(C)(C#N)C(C)(C)C)c1ccc(Cl)cc1` (stereo unspecified) the Activity (Pyricularia grisea [5]) was “<=10%” and the Activity (Pyricularia grisea [6]) was “<=10%”.

`CC(C)(C)C(C#N)C(=O)Nc1ccc(Cl)cc1` (stereo unspecified) was tested, and the Activity (Pyricularia grisea [7]) was “<=10%” and the Activity (Pyricularia grisea [5]) was “<=10%”.

`CC(NC(=O)C(C#N)C(C)(C)C)c1ccc(OC(F)(F)C(F)F)cc1` (stereo unspecified) was tested, and the Activity (Pyricularia grisea [4]) was “<=10%” and the Activity (Pyricularia grisea [6]) was “<=10%”.
